Converted amounts (≈) assume the structure as drawn. Where two headings read alike, the source gives them in different places.
Experiments:
[1] = tested on: M. tuberculosis bacteria in the non-replicating state; assay: LORA low-oxygen-recovery assay, MIC (anaerobic); type: cell-based; settings: Mycobacterium tuberculosis, 264 h; 11 day luminescence-based low-oxygen-recovery assay
[2] = tested on: Axenically grown L. donovani amastigotes (MHOM-ET-67/L82); assay: Axenic Leishmania donovani assay; type: cell-based; settings: 70 h incubation, read-out: IC50 L. donovani axen
Description: (§1) (c) Antiprotozoal screening. Compounds were evaluated for their activities against both Trypanosoma cruzi amastigotes and Leishmania donovani amastigotes (free or encapsulated in macrophages), according to the following protocols:
(ii) Axenic Leishmania donovani assay. Axenically grown L. donovani amastigotes (MHOM-ET-67/L82) from a healthy culture in log phase were seeded at a density of 1×10^6/mL medium (SM, pH 5.4 plus 10% heat inactivated fetal calf serum) in 96-well microtitre plates (Costar™) and incubated at 37° C. (5% CO2) for 70 h in either medium alone or in the presence of serial (3-fold) dilutions of test compounds (initially prepared as 10 mg/mL stock solutions in DMSO and diluted into medium). Miltefosin was employed as a standard in each assay. After incubation, Resazurin fluorescent dye was added to each well, and incubation was continued for an additional 2 h. The IC50 values were determined from measurements of the fluorescence data.

[3] = tested on: L. donovani amastigotes (MHOM-ET-67/L82) in mouse macrophages; assay: Leishmania donovani infected macrophage assay; type: cell-based; settings: 96 h incubation, read-out: IC50 L. donovani macro
Description: as §1
(iii) Leishmania donovani infected macrophage assay. Freshly harvested mouse macrophages in medium (RPMI 1640 plus 10% heat inactivated fetal calf serum) were incubated at 37° C. (5% CO2) for 24 h and then infected (1:3 macrophages to amastigotes) with an axenic L. donovani amastigote culture (MHOM-ET-67/L82) in medium (SM, pH 5.4 plus 10% heat inactivated fetal calf serum). The infected macrophages were seeded at a density of 1.2×10^6/mL (by diluting in RPMI+10% FCS) in 16-well slides (Lab-tek™) and incubated at 37° C. (5% CO2) for 24 h. The medium was removed and replaced by fresh medium (RPMI 1640+10% FCS), and this was repeated following mixing. The infected macrophages were then incubated at 37° C. (5% CO2) for 96 h in either medium alone or in the presence of serial (3-fold) dilutions of test compounds (initially prepared as 10 mg/mL stock solutions in DMSO and diluted into medium). Miltefosin was employed as a standard in each assay. […], the slides were fixed (5 min in 100% MeOH) and stained (10% Giemsa, 10 min). The ratio of infected to uninfected macrophages was determined by microscopic examination, and the IC50 values were then calculated by linear regression analysis.

[4] = tested on: replicating Mycobacterium tuberculosis; assay: MABA microplate Alamar blue assay, MIC (aerobic); type: cell-based; settings: 192 h
[5] = tested on: Trypanosoma cruzi amastigotes (Tulahuen C2C4 strain); assay: Trypanosoma cruzi assay in infected L-6 cells; type: cell-based; settings: L6, 96 h incubation, read-out: IC50 T. cruzi
Description: as §1
(i) Trypanosoma cruzi assay. L-6 cells (2×10^3) in medium (100 μL of RPMI 1640 supplemented with 2 mM L-glutamine plus 10% heat inactivated fetal calf serum) were seeded in 96-well microtitre plates (Costar™) and incubated at 37° C. (5% CO2) for 1d. A suspension (50 μL) of Trypanosoma cruzi trypomastigotes (5×10^3 of Tulahuen C2C4 strain, containing the β-galactosidase gene) was added, and the cells were incubated at 37° C. (5% CO2) for a further 48 h to establish the infection. The medium was removed and replaced by fresh medium and the infected cells were then incubated at 37° C. (5% CO2) for 96 h in either medium alone or in the presence of serial (3-fold) dilutions of test compounds (initially prepared as 10 mg/mL stock solutions in DMSO and diluted into medium). Benznidazole was employed as a standard in each assay. Following incubation, chlorophenol red glycoside (100 mM) in 0.1% Nonidet P40/PBS (50 μL) was added, and (after 6 h) the absorbance at 540 nm was measured and used to calculate the IC50 values.

VERO cells (CCL-81) = assay: Mammalian cell cytotoxicity assay (tetrazolium dye); type: cell-based; settings: Chlorocebus sabaeus, read-out: IC50 VERO
Description: (b) Mammalian cell cytotoxicity assay. This was assessed against VERO cells (CCL-81, American Type Culture Collection) in a 72 h exposure, using a tetrazolium dye assay (Falzari et al., 2005).

O=[N+]([O-])c1cn2c(n1)OC(COCc1cccc(OC(F)(F)F)c1)CC2 (stereo not drawn) [Compound 47, 2-nitro-7-({[3-(trifluoromethoxy)benzyl]oxy}methyl)-6,7-dihydro-5H-imidazo[2,1-b][1,3]oxazine]
MIC [1]: 15 µM (≈ 5.6 µg/mL) | IC50 [2]: 0.041 µg/mL (≈ 0.11 µM) | melting point: 100 to 112 °C | IC50 [3]: 0.084 µg/mL (≈ 0.225 µM) | MIC [4]: 3.8 µM (≈ 1.42 µg/mL) | IC50 [5]: 1.1 µg/mL (≈ 2.95 µM)

O=[N+]([O-])c1cn2c(n1)OC(COCc1ccc(-c3ccc(OC(F)(F)F)cc3)cc1)CC2 (stereo not drawn) [Compound 51, 2-nitro-7-({[4′-(trifluoromethoxy)[1,1′-biphenyl]-4-yl]methoxy}methyl)-6,7-dihydro-5H-imidazo[2,1-b][1,3]oxazine]
MIC [1]: 1.5 µM (≈ 0.674 µg/mL) | IC50 [2]: 0.046 µg/mL (≈ 0.102 µM) | IC50 (VERO cells (CCL-81); 72 h exposure): > 128 µM | melting point: 159 to 161 °C | IC50 [3]: 0.17 µg/mL (≈ 0.378 µM) | MIC [4]: 0.055 µM (≈ 0.0247 µg/mL) | IC50 [5]: 15 µg/mL (≈ 33.4 µM)

O=[N+]([O-])c1cn2c(n1)OCC(COCc1cccc(-c3ccc(OC(F)(F)F)cc3)c1)C2 (stereo not drawn) [Compound 74, 2-nitro-6-({[4′-(trifluoromethoxy)[1,1′-biphenyl]-3-yl]methoxy}methyl)-6,7-dihydro-5H-imidazo[2,1-b][1,3]oxazine]
MIC [1]: 2.9 µM (≈ 1.3 µg/mL) | IC50 [2]: 0.16 µg/mL (≈ 0.356 µM) | IC50 (VERO cells (CCL-81); 72 h exposure): > 128 µM | melting point: 78 to 80 °C | IC50 [3]: 0.54 µg/mL (≈ 1.2 µM) | MIC [4]: 0.22 µM (≈ 0.0989 µg/mL) | IC50 [5]: 0.94 µg/mL (≈ 2.09 µM)

CC1(COCc2ccc(OCc3ccccc3)cc2)Cn2cc([N+](=O)[O-])nc2O1 (stereo not drawn) [Compound 26, 2-({[4-(benzyloxy)benzyl]oxy}methyl)-2-methyl-6-nitro-2,3-dihydroimidazo[2,1-b][1,3]oxazole]
MIC [1]: 50 µM (≈ 19.8 µg/mL) | IC50 [2]: 0.013 µg/mL (≈ 0.0329 µM) | IC50 (VERO cells (CCL-81); 72 h exposure): > 128 µM | melting point: 130 to 131 °C | IC50 [3]: 0.36 µg/mL (≈ 0.91 µM) | MIC [4]: 0.3 µM (≈ 0.119 µg/mL) | IC50 [5]: 0.34 µg/mL (≈ 0.86 µM)

O=[N+]([O-])c1cn2c(n1)OC(COCc1cccc(-c3ccc(OC(F)(F)F)cc3)c1)CC2 (stereo not drawn) [Compound 50, 2-nitro-7-({[4′-(trifluoromethoxy)[1,1′-biphenyl]-3-yl]methoxy}methyl)-6,7-dihydro-5H-imidazo[2,1-b][1,3]oxazine]
MIC [1]: 5.1 µM (≈ 2.29 µg/mL) | IC50 [2]: 0.041 µg/mL (≈ 0.0912 µM) | IC50 (VERO cells (CCL-81); 72 h exposure): > 128 µM | melting point: 117 to 119 °C | IC50 [3]: 0.15 µg/mL (≈ 0.334 µM) | MIC [4]: 0.24 µM (≈ 0.108 µg/mL) | IC50 [5]: 6.3 µg/mL (≈ 14 µM)

CC1(COc2ccc(-c3ccc(C#N)cc3)cc2)Cn2cc([N+](=O)[O-])nc2O1 (stereo not drawn) [Compound 9, 4′-[(2-methyl-6-nitro-2,3-dihydroimidazo[2,1-b][1,3]oxazol-2-yl)methoxy][1,1′-biphenyl]-4-carbonitrile]
MIC [1]: 3.7 µM (≈ 1.39 µg/mL) | IC50 [2]: 0.016 µg/mL (≈ 0.0425 µM) | IC50 (VERO cells (CCL-81); 72 h exposure): > 128 µM | melting point: 180 to 181 °C | IC50 [3]: 0.2 µg/mL (≈ 0.531 µM) | MIC [4]: 0.04 µM (≈ 0.0151 µg/mL) | IC50 [5]: 1.2 µg/mL (≈ 3.19 µM)

CC1(COc2ccc(-c3ccc(C(F)(F)F)cc3)cc2)Cn2cc([N+](=O)[O-])nc2O1 (stereo not drawn) [Compound 11, 2-methyl-6-nitro-2-({[4′-(trifluoromethyl)[1,1′-biphenyl]-4-yl]oxy}methyl)-2,3-dihydroimidazo[2,1-b][1,3]oxazole]
IC50 [2]: 0.028 µg/mL (≈ 0.0668 µM) | IC50 (VERO cells (CCL-81); 72 h): > 128 µM | melting point: 219 to 220 °C | IC50 [3]: 0.47 µg/mL (≈ 1.12 µM) | MIC [4]: 0.08 µM (≈ 0.0335 µg/mL) | IC50 [5]: 18 µg/mL (≈ 42.9 µM)

CC1(COc2ccc(-c3ccc(F)cc3)cc2)Cn2cc([N+](=O)[O-])nc2O1 (stereo not drawn) [Compound 10, 2-{[(4′-fluoro[1,1′-biphenyl]-4-yl)oxy]methyl}-2-methyl-6-nitro-2,3-dihydroimidazo[2,1-b][1,3]oxazole]
IC50 [2]: 0.04 µg/mL (≈ 0.108 µM) | IC50 (VERO cells (CCL-81); 72 h exposure): > 128 µM | melting point: 180 to 181 °C | IC50 [3]: 0.23 µg/mL (≈ 0.623 µM) | MIC [4]: 0.045 µM (≈ 0.0166 µg/mL) | IC50 [5]: 2 µg/mL (≈ 5.41 µM)

O=[N+]([O-])c1cn2c(n1)OCC(COCc1ccc(-c3ccc(OC(F)(F)F)cc3)cc1)C2 (stereo not drawn) [Compound 75, 2-nitro-6-({[4′-(trifluoromethoxy) [1,1′-biphenyl]-4-yl]methoxy}methyl)-6,7-dihydro-5H-imidazo[2,1-b][1,3]oxazine]
MIC [1]: > 128 µM | IC50 [2]: 0.2 µg/mL (≈ 0.445 µM) | IC50 (VERO cells (CCL-81); 72 h): > 128 µM | melting point: 135 to 138 °C | IC50 [3]: 0.67 µg/mL (≈ 1.49 µM) | MIC [4]: 0.3 µM (≈ 0.135 µg/mL) | IC50 [5]: 0.47 µg/mL (≈ 1.05 µM)

O=[N+]([O-])c1cn2c(n1)OCC(COCc1ccc(OCc3ccccc3)cc1)C2 (stereo not drawn) [Compound 73, 6-({[4-(benzyloxy)benzyl]oxy}methyl)-2-nitro-6,7-dihydro-5H-imidazo[2,1-b][1,3]oxazine]
IC50 [2]: 0.16 µg/mL (≈ 0.405 µM) | IC50 (VERO cells (CCL-81); 72 h exposure): 113 µM | melting point: 150 to 151 °C | IC50 [3]: 0.53 µg/mL (≈ 1.34 µM) | IC50 [5]: 2.8 µg/mL (≈ 7.08 µM)

COc1ccc(-c2ccc(OCC3(C)Cn4cc([N+](=O)[O-])nc4O3)cc2)cn1 (stereo not drawn) [Compound 8, 2-{[4-(6-methoxy-3-pyridinyl)phenoxy]methyl}-2-methyl-6-nitro-2,3-dihydroimidazo[2,1-b][1,3]oxazole]
MIC [1]: 14 µM (≈ 5.35 µg/mL) | IC50 [2]: 0.017 µg/mL (≈ 0.0445 µM) | IC50 (VERO cells (CCL-81); 72 h exposure): > 128 µM | melting point: 217 to 219 °C | IC50 [3]: 0.38 µg/mL (≈ 0.994 µM) | MIC [4]: 0.04 µM (≈ 0.0153 µg/mL) | IC50 [5]: 4.1 µg/mL (≈ 10.7 µM)

CC1(COCc2ccc(OCc3ccccc3)cc2)CCn2cc([N+](=O)[O-])nc2O1 (stereo not drawn) [Compound 54, 7-({[4-(benzyloxy)benzyl]oxy}methyl)-7-methyl-2-nitro-6,7-dihydro-5H-imidazo[2,1-b][1,3]oxazine]
MIC [1]: 1.4 µM (≈ 0.573 µg/mL) | IC50 [2]: 0.047 µg/mL (≈ 0.115 µM) | IC50 (VERO cells (CCL-81); 72 h exposure): > 128 µM | melting point: 109 to 111 °C | IC50 [3]: 0.095 µg/mL (≈ 0.232 µM) | MIC [4]: 0.2 µM (≈ 0.0819 µg/mL) | IC50 [5]: 0.74 µg/mL (≈ 1.81 µM)

CC1(COc2ccc(OCc3ccccc3)cc2)Cn2cc([N+](=O)[O-])nc2O1 (stereo not drawn) [Compound 7, 2-{[4-(benzyloxy)phenoxy]methyl}-2-methyl-6-nitro-2,3-dihydroimidazo[2,1-b][1,3]oxazole]
MIC [1]: 24 µM (≈ 9.15 µg/mL) | IC50 [2]: 0.016 µg/mL (≈ 0.042 µM) | melting point: 162 to 165 °C | IC50 [3]: 0.4 µg/mL (≈ 1.05 µM) | MIC [4]: 0.53 µM (≈ 0.202 µg/mL) | IC50 [5]: 3.2 µg/mL (≈ 8.39 µM)

O=[N+]([O-])c1cn2c(n1)OC(COCc1ccc(OCc3ccccc3)cc1)CC2 (stereo not drawn) [Compound 49, 7-({[4-(benzyloxy)benzyl]oxy}methyl)-2-nitro-6,7-dihydro-5H-imidazo[2,1-b][1,3]oxazine]
IC50 [2]: 0.048 µg/mL (≈ 0.121 µM) | IC50 (VERO cells (CCL-81); 72 h exposure): > 128 µM | melting point: 151 to 153 °C | IC50 [3]: 0.065 µg/mL (≈ 0.164 µM) | IC50 [5]: 0.55 µg/mL (≈ 1.39 µM)
